Measured values from ChEMBL document CHEMBL5042496, “An unanticipated discovery towards novel naphthalimide corbelled aminothiazoximes as potential anti-MRSA agents and allosteric modulators for PBP2a” (Eur J Med Chem, 2022).
≈ marks a conversion by molar mass, not a printed value.

Tests used:
Escherichia coli [1] = assay: Antibacterial activity against Escherichia coli assessed as bacterial growth inhibition measured after 24 hrs by two fold serial dilution technique; type: functional
Klebsiella pneumoniae = assay: Antibacterial activity against Klebsiella pneumoniae assessed as bacterial growth inhibition measured after 24 hrs by two fold serial dilution technique; type: functional
Staphylococcus aureus [2] = assay: Antibacterial activity against Staphylococcus aureus ATCC 25923 assessed as bacterial growth inhibition measured after 24 hrs by two fold serial dilution technique; type: functional
Pseudomonas aeruginosa [3] = assay: Antibacterial activity against Pseudomonas aeruginosa assessed as bacterial growth inhibition measured after 24 hrs by two fold serial dilution technique; type: functional
Staphylococcus aureus [4] = assay: Antibacterial activity against Staphylococcus aureus assessed as bacterial growth inhibition measured after 24 hrs by two fold serial dilution technique; type: functional
Acinetobacter baumannii = assay: Antibacterial activity against Acinetobacter baumannii assessed as bacterial growth inhibition measured after 24 hrs by two fold serial dilution technique; type: functional
[5] = Hemolytic activity in human RBC assessed as hemolysis incubated for 1 hr; type: toxicity, cell-based, Erythrocyte; conditions: red blood cells
Escherichia coli [6] = assay: Antibacterial activity against Escherichia coli ATCC 25922 assessed as bacterial growth inhibition measured after 24 hrs by two fold serial dilution technique; type: functional
Staphylococcus aureus [7] = assay: Antibacterial activity against Staphylococcus aureus ATCC 29213 assessed as bacterial growth inhibition measured after 24 hrs by two fold serial dilution technique; type: functional
Enterococcus faecium = assay: Antibacterial activity against Enterococcus faecium assessed as bacterial growth inhibition measured after 24 hrs by two fold serial dilution technique; type: functional
Staphylococcus aureus [8] = assay: Antibacterial activity against methicillin-resistant Staphylococcus aureus assessed as bacterial growth inhibition measured after 24 hrs by two fold serial dilution technique; type: functional
Pseudomonas aeruginosa [9] = assay: Antibacterial activity against Pseudomonas aeruginosa ATCC 27853 assessed as bacterial growth inhibition measured after 24 hrs by two fold serial dilution technique; type: functional

Row | SMILES | MIC (Escherichia coli [1]) [mg/L] | MIC (Klebsiella pneumoniae) [mg/L] | MIC (Staphylococcus aureus [2]) [mg/L] | MIC (Pseudomonas aeruginosa [3]) [mg/L] | MIC (Staphylococcus aureus [4]) [mg/L] | MIC (Acinetobacter baumannii) [mg/L] | HC50 at 1 h [5] [µg/mL] | MIC (Escherichia coli [6]) [mg/L] | MIC (Staphylococcus aureus [7]) [mg/L] | MIC (Enterococcus faecium) [mg/L] | MIC (Staphylococcus aureus [8]) [mg/L] | MIC (Pseudomonas aeruginosa [9]) [mg/L]
1 | CO/N=C(\C(=O)N1CCN(c2ccc3c4c(cccc24)C(=O)N(NC(C)=O)C3=O)CC1)c1csc(N)n1 | 4 (≈ 7.67 µM) | 32 (≈ 61.4 µM) | 64 (≈ 123 µM) | 32 (≈ 61.4 µM) | 64 (≈ 123 µM) | 16 (≈ 30.7 µM) | 180 | 64 (≈ 123 µM) | 32 (≈ 61.4 µM) | 32 (≈ 61.4 µM) | 4 (≈ 7.67 µM) | 32 (≈ 61.4 µM)
2 | CO/N=C(\C(=O)N1CCN(c2ccc3c4c(cccc24)C(=O)N(N)C3=O)CC1)c1csc(N)n1 | 2 (≈ 4.17 µM) | 32 (≈ 66.7 µM) | 32 (≈ 66.7 µM) | 16 (≈ 33.4 µM) | 64 (≈ 133 µM) | 32 (≈ 66.7 µM) | 250 | 64 (≈ 133 µM) | 64 (≈ 133 µM) | 32 (≈ 66.7 µM) | 4 (≈ 8.34 µM) | 32 (≈ 66.7 µM)
3 | CN(C)[C@@H]1C(O)=C(C(N)=O)C(=O)[C@@]2(O)C(O)=C3C(=O)c4c(O)cccc4[C@@](C)(O)[C@H]3C[C@@H]12 [TETRACYCLINE] | 0.25 (≈ 0.563 µM) | 16 (≈ 36 µM) | 4 (≈ 9 µM) | 0.25 (≈ 0.563 µM) | 1 (≈ 2.25 µM) | 0.25 (≈ 0.563 µM) |  | 1 (≈ 2.25 µM) | 4 (≈ 9 µM) | 2 (≈ 4.5 µM) | 1 (≈ 2.25 µM) | 64 (≈ 144 µM)
4 | CO/N=C(\C(=O)N1CCN(c2ccc3c4c(cccc24)C(=O)N(CC#N)C3=O)CC1)c1csc(N)n1 | 128 (≈ 254 µM) | 16 (≈ 31.8 µM) | 128 (≈ 254 µM) | 256 (≈ 508 µM) | 64 (≈ 127 µM) | 8 (≈ 15.9 µM) | 299 | 64 (≈ 127 µM) | 32 (≈ 63.5 µM) | 8 (≈ 15.9 µM) | 16 (≈ 31.8 µM) | 64 (≈ 127 µM)
5 | CO/N=C(\C(=O)N1CCN(c2ccc3c4c(cccc24)C(=O)N(C(CO)CO)C3=O)CC1)c1csc(N)n1 | 4 (≈ 7.43 µM) | 128 (≈ 238 µM) | 16 (≈ 29.7 µM) | 32 (≈ 59.4 µM) | 64 (≈ 119 µM) | 32 (≈ 59.4 µM) | 232 | 64 (≈ 119 µM) | 32 (≈ 59.4 µM) | 64 (≈ 119 µM) | 4 (≈ 7.43 µM) | 32 (≈ 59.4 µM)
6 | CO/N=C(\C(=O)N1CCN(c2ccc3c4c(cccc24)C(=O)N(C)C3=O)CC1)c1csc(N)n1 | 32 (≈ 66.9 µM) | 8 (≈ 16.7 µM) | 64 (≈ 134 µM) | 64 (≈ 134 µM) | 16 (≈ 33.4 µM) | 8 (≈ 16.7 µM) | 343 | 64 (≈ 134 µM) | 16 (≈ 33.4 µM) | 8 (≈ 16.7 µM) | 4 (≈ 8.36 µM) | 32 (≈ 66.9 µM)
7 | CO/N=C(\C(=O)N1CCN(c2ccc3c4c(cccc24)C(=O)N(C2CCCC2)C3=O)CC1)c1csc(N)n1 | 64 (≈ 120 µM) | 32 (≈ 60.1 µM) | 64 (≈ 120 µM) | 64 (≈ 120 µM) | 64 (≈ 120 µM) | 8 (≈ 15 µM) | 278 | 64 (≈ 120 µM) | 32 (≈ 60.1 µM) | 16 (≈ 30 µM) | 8 (≈ 15 µM) | 32 (≈ 60.1 µM)
8 | CCON1C(=O)c2cccc3c(N4CCN(C(=O)/C(=N\OC)c5csc(N)n5)CC4)ccc(c23)C1=O | 64 (≈ 126 µM) | 16 (≈ 31.5 µM) | 64 (≈ 126 µM) | 64 (≈ 126 µM) | 128 (≈ 252 µM) | 2 (≈ 3.93 µM) | 509 | 64 (≈ 126 µM) | 32 (≈ 62.9 µM) | 8 (≈ 15.7 µM) | 8 (≈ 15.7 µM) | 32 (≈ 62.9 µM)
9 | CO/N=C(\C(=O)N1CCN(c2ccc3c4c(cccc24)C(=O)N(c2nc4ccccc4[nH]2)C3=O)CC1)c1csc(N)n1 | 256 (≈ 441 µM) | 8 (≈ 13.8 µM) | 128 (≈ 220 µM) | 16 (≈ 27.6 µM) | 128 (≈ 220 µM) | 128 (≈ 220 µM) | 367 | 16 (≈ 27.6 µM) | 128 (≈ 220 µM) | 128 (≈ 220 µM) | 4 (≈ 6.89 µM) | 32 (≈ 55.1 µM)
10 | CO/N=C(\C(=O)N1CCN(c2ccc3c4c(cccc24)C(=O)N(CCC(=O)O)C3=O)CC1)c1csc(N)n1 | 8 (≈ 14.9 µM) | 128 (≈ 239 µM) | 16 (≈ 29.8 µM) | 16 (≈ 29.8 µM) | 64 (≈ 119 µM) | 16 (≈ 29.8 µM) | 210 | 64 (≈ 119 µM) | 64 (≈ 119 µM) | 16 (≈ 29.8 µM) | 8 (≈ 14.9 µM) | 32 (≈ 59.6 µM)
11 | CCCCCCCCCCCCN1C(=O)c2cccc3c(N4CCN(C(=O)/C(=N\OC)c5csc(N)n5)CC4)ccc(c23)C1=O | 64 (≈ 101 µM) | 64 (≈ 101 µM) | 128 (≈ 202 µM) | 64 (≈ 101 µM) | 16 (≈ 25.3 µM) | 16 (≈ 25.3 µM) | 359 | 128 (≈ 202 µM) | 128 (≈ 202 µM) | 32 (≈ 50.6 µM) | 64 (≈ 101 µM) | 64 (≈ 101 µM)
12 | CCCCN1C(=O)c2cccc3c(N4CCN(C(=O)/C(=N\OC)c5csc(N)n5)CC4)ccc(c23)C1=O | 32 (≈ 61.5 µM) | 64 (≈ 123 µM) | 128 (≈ 246 µM) | 64 (≈ 123 µM) | 64 (≈ 123 µM) | 8 (≈ 15.4 µM) | 563 | 64 (≈ 123 µM) | 64 (≈ 123 µM) | 16 (≈ 30.7 µM) | 8 (≈ 15.4 µM) | 64 (≈ 123 µM)
